Assay results published in publication PMC7367873, “Dissecting the sequence determinants for dephosphorylation by the catalytic subunits of phosphatases PP1 and PP2A” (Nature Communications, 2020).
Entries after “also recorded” stand apart in the source; their conditions may differ.

System: GAB2/GFP-14-3-3β interaction
Experiment: GAB2/14-3-3 binding assay (GFP-14-3-3β pull-down, Western blot)
Parameters: species or system human
Experimental: pEGFP(C1)-14-3-3β or pCMV-GAB2-3FLAG was transfected into HeLa Kyoto cells as described in the respective section for 24 h. Cells were incubated with or w/o 20 nM Calyculin A (# 9902 S, Cell Signaling Technology) in complete growth media for 12 min. Cells were washed twice on ice with cold PBS and after addition of 500 µL lysis buffer (100 mM NaCl, 10 mM Tris, 0.1% IGEPAL, 1 mM EDTA, 1 mM EGTA, 20 nM Calyculin A, 1x cOmplete Mini protease inhibitor cocktail (Sigma), 2 mM DTT, 2 mM MnCl2) cells were scraped from plates, lysed by 10 pushes through an injection needle and the insoluble fraction was pelleted by centrifugation (10 min, 10^4 rcf, 4 °C). Supernatants were then subjected to incubation with 1 µM recombinant PP1c (if not indicated otherwise) or buffer for 1 h at 30 °C. […] Next, we subjected samples to immunoprecipitation/pull-down using 25 µL of α-FLAG M2 magnetic bead slurry (Sigma-Aldrich) or an equal volume of bead-coupled α-GFP nanobodies (EMBL PEPcore Core Facility) for 2 h at 4 °C. Beads were then washed three times with lysis buffer and samples were eluted in 1x SDS sample buffer by heating to 95 °C for 10 min and further analyzed by SDS PAGE for 14-3-3/GAB2 association and phosphorylation status of GAB2-pS210.
For SDS-PAGE, samples were loaded on NuPAGE™ 4-12% Bis-Tris protein gels (Invitrogen) and gel electrophoresis was performed at 180 V constant in 1x MOPS buffer. Samples were transferred onto CN blotting membranes (0.45 µm, neoLab) by wet blotting. Membranes were stained using Ponceau, followed by blocking with Tris-buffered saline with 0.1% Tween (TBS-T) containing 5% (w/v) non-fat milk for 45 min at room temperature. After three washes (5 min), membranes were then incubated with the following antibodies in TBS-T with 5% BSA overnight at 4 °C: α-GFP (1:2000, Abcam, ab6556), α-GAB2 (1:1000, CST, #3239), α-GAB2-pS210 (1:250, Symansis, customized purification), α-FLAG (1:1000, M2, Sigma-Aldrich, F3165), α-pan14-3-3 (1:500, SCBT, sc-629), α-PP1 (1:1000, SCBT, sc-7482), α-PP2A (1:1000, SCBT, sc-130237) or α-6His (1:2000, Abcam, ab9108). Afterwards blots were washed three times in TBS-T and incubated with goat anti-mouse IgG-peroxidase conjugate (1:2500, Sigma, A0168), donkey anti-rabbit IgG-horseradish peroxidase (HRP) conjugate (1:2500, GE Healthcare, GENA934), or rabbit anti-sheep IgG (H + L) HRP conjugate (1:2500, Thermo Fisher Scientific, 61-8620) for 2 h at room temperature. […] All blots were quantified using raw images and ImageLab software (v6.0.1, BioRad): Files were imported and analyzed without further modifications. […] The quantification was exported from the analysis table and measurements of background adjusted band volumes where used for further normalization steps and graphical depiction. […]

Question: Which results are given for “PP1c: recombinant catalytic subunit of PP1”?
Answer: interaction of GAB2 with overexpressed GFP-14-3-3β (Calyculin A 20 nM in cells, recombinant PP1c in lysate 1 h at 30 °C, PP1c-concentration-dependent, three independent experiments): decreased upon addition of recombinant PP1c in a PP1c–concentration-dependent manner; also recorded: less associated with endogenous GAB2; interaction of GAB2 with GFP-14-3-3β, PP1c pre-inhibited (recombinant PP1c mixed with equimolar Calyculin A for 5–10 min before addition to lysate): but not if recombinant PP1c was inhibited prior to treatment
